The test system of series [1] is L1210. As to the kind of experiment: Antiproliferative activity against mouse L1210 cells. The series is classed as functional, cell-based.
Series [2] can be described thus: Cytotoxicity against human HCT116/VM46 cells assessed as reduction in cell viability. The note with it: HCT-116/VM46. The series is classed as cell-based.
A short description of series [3]: Displacement of BODIPY-labeled vinblastine from tubulin (unknown origin) at 18 uM after 60 mins by fluorescence assay relative to control. Particulars: Homo sapiens.
A short description of series [4]: Cytotoxicity against human HCT116/VM46 cells assessed as reduction in cell viability after 72 hrs by phosphatase assay. The series is classed as cell-based. Particulars: HCT-116/VM46, 72 h.
The test system of series [5] is L1210. Put plainly: Antiproliferative activity against mouse L1210 cells after 72 hrs by phosphatase assay. The series is classed as functional, cell-based. Particulars: L1210, 72 h.
The test system of series [6] is HCT-116. As to the kind of experiment: Antiproliferative activity against human HCT116 cells after 72 hrs by phosphatase assay. Particulars: HCT-116, 72 h. The series is classed as functional, cell-based.
Series [7] relates to LS174T. Put plainly: Antiproliferative activity against human LS174T cells after 72 hrs by phosphatase assay. The series is classed as functional, cell-based.
The subject of series [8] is PA-1. Put plainly: Antiproliferative activity against human PA1 cells after 72 hrs by phosphatase assay. The series is classed as functional, cell-based. The note with it: PA-1, 72 h.
In series [9] the test system is NCI-H520. As to the kind of experiment: Antiproliferative activity against human NCI-H520 cells after 72 hrs by phosphatase assay. The series is classed as functional, cell-based. Particulars: NCI-H520, 72 h.
Series [10] deals with LNCaP. As to the kind of experiment: Antiproliferative activity against human LNCAP cells after 72 hrs by phosphatase assay. The series is classed as functional, cell-based.
Series [11] has as its system MDA-MB-468. Put plainly: Antiproliferative activity against human MDA-MB-468 cells after 72 hrs by phosphatase assay. The series is classed as functional, cell-based. Particulars: MDA-MB-468, 72 h.
Series [12] can be described thus: Antiproliferative activity against human HCT116/VP35 cells after 72 hrs by phosphatase assay. The series is classed as functional, cell-based. The note with it: HCT-116, 72 h.
Series [13] has as its target MDR1 (ABCB1, P-gp) ATPase (Homo sapiens, UniProt P08183). Put plainly: Inhibition of MDR1 (unknown origin) ATPase activity expressed in sf9 cell membranes assessed as residual activity at 20 uM using ATP as substrate preincubated for 5 mins followed by substrate addition measured after 20 mins by spectrophotometric method relative to control. Particulars: Sf9 cell membranes expressing MDR1, probe ATP, read-out: Activity.

The nature of series [14]: Apparent permeability from basolateral to apical side in human Caco2 cells. The series is classed as ADME, cell-based. Particulars: Caco-2.
For series [15], the system named is HCT-116. Put plainly: Antiproliferative activity against human HCT116 cells. The series is classed as functional, cell-based.

SMILES strings stand for the structures.

MDR1 (ABCB1, P-gp) ATPase, sequence (P08183 whole entry): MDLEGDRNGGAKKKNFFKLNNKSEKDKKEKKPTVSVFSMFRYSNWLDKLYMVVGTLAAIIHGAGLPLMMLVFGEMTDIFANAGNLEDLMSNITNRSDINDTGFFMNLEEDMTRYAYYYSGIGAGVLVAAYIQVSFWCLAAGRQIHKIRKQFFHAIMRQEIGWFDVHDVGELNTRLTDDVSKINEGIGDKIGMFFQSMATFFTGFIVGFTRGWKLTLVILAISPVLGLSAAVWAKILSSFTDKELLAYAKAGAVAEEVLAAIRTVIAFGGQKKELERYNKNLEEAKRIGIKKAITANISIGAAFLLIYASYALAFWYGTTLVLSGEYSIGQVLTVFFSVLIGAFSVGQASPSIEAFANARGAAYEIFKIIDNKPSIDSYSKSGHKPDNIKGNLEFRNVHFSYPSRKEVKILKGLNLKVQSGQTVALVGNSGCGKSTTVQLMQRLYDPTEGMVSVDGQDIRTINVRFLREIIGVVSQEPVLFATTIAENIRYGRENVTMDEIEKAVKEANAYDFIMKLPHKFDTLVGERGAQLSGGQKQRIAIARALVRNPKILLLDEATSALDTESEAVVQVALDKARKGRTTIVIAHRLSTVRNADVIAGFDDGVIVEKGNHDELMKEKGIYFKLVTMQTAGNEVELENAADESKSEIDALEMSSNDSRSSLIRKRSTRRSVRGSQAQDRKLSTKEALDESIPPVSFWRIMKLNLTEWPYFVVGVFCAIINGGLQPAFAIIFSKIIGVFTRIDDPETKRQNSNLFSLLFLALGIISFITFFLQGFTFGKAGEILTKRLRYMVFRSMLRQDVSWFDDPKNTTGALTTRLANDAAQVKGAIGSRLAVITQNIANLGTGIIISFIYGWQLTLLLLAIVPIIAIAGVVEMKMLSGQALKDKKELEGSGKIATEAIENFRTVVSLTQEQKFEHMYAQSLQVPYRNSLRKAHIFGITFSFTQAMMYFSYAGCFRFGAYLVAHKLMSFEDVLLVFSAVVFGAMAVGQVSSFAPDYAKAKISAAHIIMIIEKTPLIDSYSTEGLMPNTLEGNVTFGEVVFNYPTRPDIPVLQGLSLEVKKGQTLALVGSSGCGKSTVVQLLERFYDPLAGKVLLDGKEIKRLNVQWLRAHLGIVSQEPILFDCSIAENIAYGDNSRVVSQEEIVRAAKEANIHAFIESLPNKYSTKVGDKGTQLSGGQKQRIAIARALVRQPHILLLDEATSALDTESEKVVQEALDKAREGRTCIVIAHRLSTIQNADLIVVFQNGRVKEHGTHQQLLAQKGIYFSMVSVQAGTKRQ

As a reminder, the IC50 is the concentration needed to halve the response being measured. Take `CC[C@]1(NC(C)=O)C[C@H]2CN(CCc3c([nH]c4ccccc34)[C@@](C(=O)OC)(c3cc4c(cc3OC)N(C)[C@H]3[C@@](O)(C(=O)OC)[C@H](OC(C)=O)[C@]5(CC)C=CCN6CC[C@]43[C@@H]65)C2)C1`: the concentration for half-maximal inhibition (IC50) in series [1] stood at 65 nM; in series [2] it was 7.5 µM.
A word on the inhibition: it is the change of the read-out against control, counted positive when it falls. Low values mean a weak effect, high ones a strong effect. `CC[C@]1(NC(=O)c2ccccc2)C[C@H]2CN(CCc3c([nH]c4ccccc34)[C@@](C(=O)OC)(c3cc4c(cc3OC)N(C)[C@H]3[C@@](O)(C(=O)OC)[C@H](OC(C)=O)[C@]5(CC)C=CCN6CC[C@]43[C@@H]65)C2)C1` yielded an inhibition in [3] of 72%. In addition, the IC50 amounted to 20 nM in [4], 1.1 nM in series [5] and 0.8 nM in series [6].
For the compound `CC[C@]1(NC(=O)c2ccc(C)c(C)c2)C[C@H]2CN(CCc3c([nH]c4ccccc34)[C@@](C(=O)OC)(c3cc4c(cc3OC)N(C)[C@H]3[C@@](O)(C(=O)OC)[C@H](OC(C)=O)[C@]5(CC)C=CCN6CC[C@]43[C@@H]65)C2)C1`, the IC50 in [7] is 6.1 nM; in series [8] it was 2.3 nM; in [4], 7.6 to 9 nM; in [9], 1.4 nM; in series [5], 3 nM; in series [10], 3 nM. Besides, the IC50 in series [6] was 4.5 to 4.6 nM; in [11], 4.8 nM; in series [12], 5.8 nM. In [3], this compound had an inhibition of 67%.
As to `CC[C@]1(NC(=O)c2ccc3c(c2)CCCO3)C[C@H]2CN(CCc3c([nH]c4ccccc34)[C@@](C(=O)OC)(c3cc4c(cc3OC)N(C)[C@H]3[C@@](O)(C(=O)OC)[C@H](OC(C)=O)[C@]5(CC)C=CCN6CC[C@]43[C@@H]65)C2)C1`, the IC50 is 2.4 nM in series [7]; 1 nM in series [8]; 1.8 to 4.9 nM in series [4]; 0.8 nM in [9]; 0.4 nM in series [5]; 0.8 nM in series [10]. Further, the half-maximal inhibitory concentration (IC50) in series [6] was 0.5 to 0.7 nM; in series [11], 1.2 nM; in series [12], 1.4 nM. In series [3], this compound gave an inhibition of 98%.
Take `CC(=O)O[C@H]1C(=O)[C@@]2(C)[C@H]([C@H](OC(=O)c3ccccc3)[C@]3(O)C[C@H](OC(=O)[C@H](O)[C@@H](NC(=O)c4ccccc4)c4ccccc4)C(C)=C1C3(C)C)[C@]1(OC(C)=O)CO[C@@H]1C[C@@H]2O` [PACLITAXEL]: the IC50 is 9.5 nM in series [7]; 3 nM in series [8]; above 200 nM in series [4]; 8.2 nM in series [9]; 1.9 nM in [10]; 4.1 nM in series [6]. For the same compound, the values for the half-maximal inhibitory concentration (IC50) in [11] and in [12] were 5.4 nM and 6.3 nM, respectively.
Consider `CC[C@]1(NC=O)C[C@H]2CN(CCc3c([nH]c4ccccc34)[C@@](C(=O)OC)(c3cc4c(cc3OC)N(C)[C@H]3[C@@](O)(C(=O)OC)[C@H](OC(C)=O)[C@]5(CC)C=CCN6CC[C@]43[C@@H]65)C2)C1`, for which the values for the concentration for half-maximal inhibition (IC50) in series [1] and in series [2] were 65 nM and 6.5 µM, respectively.
The term Papp B→A denotes how fast a substance crosses the layer from the basolateral side. Take `CC[C@]1(O)C[C@@H]2CN(CCc3c([nH]c4ccccc34)[C@@](C(=O)OC)(c3cc4c(cc3OC)N(C)[C@H]3[C@@](O)(C(=O)OC)[C@H](OC(C)=O)[C@]5(CC)C=CCN6CC[C@]43[C@@H]65)C2)C1` [VINBLASTINE]: the half-maximal inhibitory concentration (IC50) in series [7] is 20 nM; in series [4], 110 to 600 nM; in series [10] it was 5.1 nM; in series [11] it was 14 nM; in [12], 37 nM. The compound further had an inhibition in series [3] of 50 to 61%. In addition, the activity at 20 min, 20 µM in series [13] is 87%. In addition, in series [14], the Papp B→A was found to be 38.2 ×10⁻⁶ cm/s.
For the compound `CC[C@]1(NC(=O)c2ccc(C#N)cc2)C[C@H]2CN(CCc3c([nH]c4ccccc34)[C@@](C(=O)OC)(c3cc4c(cc3OC)N(C)[C@H]3[C@@](O)(C(=O)OC)[C@H](OC(C)=O)[C@]5(CC)C=CCN6CC[C@]43[C@@H]65)C2)C1`, the inhibition in series [3] was 56%. The half-inhibitory concentration (IC50) turned out to be 60 nM in [4], 4.4 nM in series [5] and 3.1 nM in series [6].
As for `CC[C@]1(NC(=O)C(F)(F)F)C[C@H]2CN(CCc3c([nH]c4ccccc34)[C@@](C(=O)OC)(c3cc4c(cc3OC)N(C)[C@H]3[C@@](O)(C(=O)OC)[C@H](OC(C)=O)[C@]5(CC)C=CCN6CC[C@]43[C@@H]65)C2)C1`, the half-inhibitory concentration (IC50) in series [1] came out at 660 nM; in [15], 690 nM; in series [2] it was 8.1 µM.
Compound `CC[C@]1(NC(=O)c2ccc(N(C)C)cc2)C[C@H]2CN(CCc3c([nH]c4ccccc34)[C@@](C(=O)OC)(c3cc4c(cc3OC)N(C)[C@H]3[C@@](O)(C(=O)OC)[C@H](OC(C)=O)[C@]5(CC)C=CCN6CC[C@]43[C@@H]65)C2)C1` showed an inhibition in [3] of 88%. In addition, the IC50 in [4] was found to be 4.1 nM; in [5], 0.18 nM.
Consider `CC[C@]1(NC(=O)c2ccc3c(c2)CCCC3)C[C@H]2CN(CCc3c([nH]c4ccccc34)[C@@](C(=O)OC)(c3cc4c(cc3OC)N(C)[C@H]3[C@@](O)(C(=O)OC)[C@H](OC(C)=O)[C@]5(CC)C=CCN6CC[C@]43[C@@H]65)C2)C1`, for which the IC50 is 6.6 nM in [7]; 2.6 nM in series [8]; 8.7 to 14 nM in [4]; 1.8 nM in series [9]; 3.3 nM in series [5]; 3.9 nM in series [10]. The 50% inhibitory concentration (IC50) in series [6] came to 4.9 nM; in series [11] it was 6.3 nM; in series [12] it was 6.2 nM. Also, in series [3], the inhibition worked out at 63%. Moreover, in series [13], the activity at 20 min, 20 µM turned out to be 0%. Further, in [14], the basolateral-to-apical permeability (Papp B→A) came to 2 ×10⁻⁶ cm/s.
For `CCSc1ccc(C(=O)N[C@@]2(CC)C[C@H]3CN(CCc4c([nH]c5ccccc45)[C@@](C(=O)OC)(c4cc5c(cc4OC)N(C)[C@H]4[C@@](O)(C(=O)OC)[C@H](OC(C)=O)[C@]6(CC)C=CCN7CC[C@]54[C@@H]76)C3)C2)cc1`, the IC50 came out at 35 nM in [4], 4.9 nM in [5] and 6.1 nM in [6].
For `CC[C@]1(NC(=O)c2cccc(C(F)(F)F)c2)C[C@H]2CN(CCc3c([nH]c4ccccc34)[C@@](C(=O)OC)(c3cc4c(cc3OC)N(C)[C@H]3[C@@](O)(C(=O)OC)[C@H](OC(C)=O)[C@]5(CC)C=CCN6CC[C@]43[C@@H]65)C2)C1`, in that order: 40 nM, 6.2 nM and 6.4 nM.
For `CC[C@]1(NC(=O)c2ccccc2OC)C[C@H]2CN(CCc3c([nH]c4ccccc34)[C@@](C(=O)OC)(c3cc4c(cc3OC)N(C)[C@H]3[C@@](O)(C(=O)OC)[C@H](OC(C)=O)[C@]5(CC)C=CCN6CC[C@]43[C@@H]65)C2)C1`, in that order: 100 nM, 30 nM and 10 nM.
For `CC[C@]1(NC(=O)c2ccc3sccc3c2)C[C@H]2CN(CCc3c([nH]c4ccccc34)[C@@](C(=O)OC)(c3cc4c(cc3OC)N(C)[C@H]3[C@@](O)(C(=O)OC)[C@H](OC(C)=O)[C@]5(CC)C=CCN6CC[C@]43[C@@H]65)C2)C1`, in that order: 16 nM, 4.2 nM and 4.9 nM.
`CC[C@]1(NC(=O)c2ccc(C)c(OC)c2)C[C@H]2CN(CCc3c([nH]c4ccccc34)[C@@](C(=O)OC)(c3cc4c(cc3OC)N(C)[C@H]3[C@@](O)(C(=O)OC)[C@H](OC(C)=O)[C@]5(CC)C=CCN6CC[C@]43[C@@H]65)C2)C1`: the concentration for half-maximal inhibition (IC50) in series [4] was found to be 6.9 nM; in series [5], 4.2 nM; in series [6] it was 3.3 nM.
For `CC[C@]1(NC(=O)c2ccc(C(C)(C)C)cc2)C[C@H]2CN(CCc3c([nH]c4ccccc34)[C@@](C(=O)OC)(c3cc4c(cc3OC)N(C)[C@H]3[C@@](O)(C(=O)OC)[C@H](OC(C)=O)[C@]5(CC)C=CCN6CC[C@]43[C@@H]65)C2)C1`, in that order: 55 nM, 0.6 nM and 1.9 nM.
For `CC[C@]1(NC(=O)c2ccsc2)C[C@H]2CN(CCc3c([nH]c4ccccc34)[C@@](C(=O)OC)(c3cc4c(cc3OC)N(C)[C@H]3[C@@](O)(C(=O)OC)[C@H](OC(C)=O)[C@]5(CC)C=CCN6CC[C@]43[C@@H]65)C2)C1`, in that order: 7.7 nM, 0.5 nM and 0.7 nM.
The matching figures for `CC[C@]1(NC(=O)c2ccc3ncoc3c2)C[C@H]2CN(CCc3c([nH]c4ccccc34)[C@@](C(=O)OC)(c3cc4c(cc3OC)N(C)[C@H]3[C@@](O)(C(=O)OC)[C@H](OC(C)=O)[C@]5(CC)C=CCN6CC[C@]43[C@@H]65)C2)C1`: 30 nM, 0.6 nM and 0.6 nM.
For `CC[C@]1(NC(=O)c2ccc(OC)cc2F)C[C@H]2CN(CCc3c([nH]c4ccccc34)[C@@](C(=O)OC)(c3cc4c(cc3OC)N(C)[C@H]3[C@@](O)(C(=O)OC)[C@H](OC(C)=O)[C@]5(CC)C=CCN6CC[C@]43[C@@H]65)C2)C1`, the half-maximal inhibitory concentration (IC50) worked out at 70 nM in series [4], 6.2 nM in [5] and 6.4 nM in series [6].
